Columns and labels:
clinical = conditions: human, in vivo
[1] = Mass balance study with [14C]vibegron, healthy subjects; conditions: human plasma, 2 and 4 hr
Source text: The accumulation potential of circulating metabolites in plasma was not estimated due to insufficient data from later time points to enable estimation of half-life.

[2] = Drug interaction: effect of vibegron on conmed PK; conditions: human, in vivo, 4 mg
[3] = Phase 2b OAB study, cardiovascular safety (HR, SBP, DBP, orthostatic AEs); format: in vivo, human; conditions: 4 mg
Source text: None led to discontinuation. The overall incidence of orthostatic symptoms was low.
Small differences in the percent of subjects exceeding categorical heart rate and blood pressure thresholds for vibegron were similar to those in the tolterodine arm.

[4] = Phase 2b OAB study, adverse events
Source text: A placebo group was included in the main study, and a group that received tolterodine monotherapy was included in the main study and in the extension.

[5] = cited from earlier work

SMILES: C[C@H]1O[C@@H](O[C@H]2[C@@H](O)C[C@H](O[C@H]3[C@@H](O)C[C@H](O[C@H]4CC[C@@]5(C)[C@H](CC[C@@H]6[C@@H]5C[C@@H](O)[C@]5(C)[C@@H](C7=CC(=O)OC7)CC[C@]65O)C4)O[C@@H]3C)O[C@@H]2C)C[C@H](O)[C@@H]1O [Digoxin]
- AUC (clinical; 0.25 mg): 16.6 ng·h/mL

SMILES: C#C[C@]1(O)CC[C@H]2[C@@H]3CCc4cc(O)ccc4[C@H]3CC[C@@]21C [EE, ethinyl estradiol]
- AUC (clinical; 0.03 mg): 0.81 ng·h/mL
- Cmax (clinical; 0.03 mg): 0.0719 ng/mL

SMILES: C#C[C@]1(O)CC[C@H]2[C@@H]3CCC4=CC(=O)CC[C@@H]4[C@H]3CC[C@@]21CC [LNG, levonorgestrel]
- AUC (clinical; 0.15 mg): 31 ng·h/mL
- Cmax (clinical; 0.15 mg): 2.07 ng/mL

SMILES: O=C(O)C1OC(OC(c2ccccc2)C2CCC(Cc3ccc(NC(=O)C4CCc5nccc(=O)n54)cc3)N2)C(O)C(O)C1O (stereo not shown) [M7]
- share of total circulating drug-related material [1]: 12-14%

SMILES: Cc1ccc(O)c([C@H](CCN(C(C)C)C(C)C)c2ccccc2)c1 [Tolterodine ER, reference compound]
- Cmax [2]: 2.28 ng/mL
- DBP change from baseline, mean (95% CI) max, week 1 to 8 [3]: 5.19 (4.26, 6.13) mm Hg
- DBP change from baseline, mean (95% CI), week 1 [3]: −0.12 (−1.10, 0.86) mm Hg
- HR change from baseline, mean (95% CI) maximum, week 1 to 8 [3]: 5.66 (4.69, 6.63) bpm
- HR change from baseline, mean (95% CI), week 1 [3]: 0.68 (−0.31, 1.67) bpm
- SBP change from baseline, mean (95% CI) maximum, week 1 to 8 [3]: 7.29 (6.01, 8.57) mm Hg
- SBP change from baseline, mean (95% CI), week 1 [3]: 0.04 (−1.36, 1.43) mm Hg
- Discontinuation due to drug-related AE, subjects ([4]; first 12 weeks, dose group by column): 0 n
- frequency of injuries ([4]; human, in vivo): 2.1%

SMILES: O=C(O)c1cccc(-c2cccc(NCCNC[C@H](O)c3cccc(Cl)c3)c2)c1 [solabegron]
- number of pain- and discomfort-free days vs placebo ([5]; Phase IIa, IBS, females): statistically significant increase
- clinical benefit ([5]; Phase IIa, IBS, male subjects): no clinical benefit
- bowel function and plasma somatostatin concentration ([5]; healthy volunteers): no effect
- gastrointestinal or colonic transit ([5]; healthy volunteers): did not significantly alter
